Measurements reported in patent publication US10759740B2, “Antibacterial agents” (Rutgers, The State University of New Jersey, priority 2016, dated 2020).
In brackets after ≈: the same amount, converted by molar mass.

Legend:
[1] = system: Gram-positive and Gram-negative bacteria; test: Broth microdilution assay, whole panel; assay type: cell-based; settings: 250 μg/mL
Protocol: (§1) From the frozen stock (−80° C.), bacteria were inoculated into brain-hear infusion (BHI) agar (Becton Dickinson, Franklin Lakes, N.J.) and propagated under aerobic conditions at 37° C. for 24 h. After the incubation, one colony of each bacterial strain was transferred to BHI broth (Becton Dickinson, Franklin Lakes, N.J.) and sub-cultured at least twice into BHI before being used in experiments.
The minimal inhibitory concentration (MIC) of CAms were identified using a broth microdilution assay modified from previous studies. Briefly, the stock solutions of CAMs were first prepared by dissolving in double-distilled water (ddH2O) and then diluted in BHI broth at pre-determined concentrations. Further serial 2-fold dilutions were performed in a 96-well microplate (Becton Dickinson, Franklin Lakes, N.J.) with BHI broth. The inoculum concentration was adjusted to 5×10^6 CFU/mL with ultraviolet-visible (UV-vis) spectroscopy at 600 nm. An equal volume (100 μL) of bacterial suspension was added to each microplate well with a final volume of 200 μL. […] The lowest CAm concentration that yielded no visible growth was recorded as the MIC. […]
CAms were evaluated against five selected pathogenic microorganisms, including Gram-positive bacteria (i.e., S. aureus and L. monocytogenes) and Gram-negative bacteria (i.e., E. coli, S. typhimurium, and P. aeruginosa), using a turbidity-based microdilution method. […]

Escherichia coli O157:H7 = test: Broth microdilution assay (MIC); assay type: cell-based; settings: BHI broth, 37° C., 24 h, no visible growth
Protocol: as §1
(§2) The minimal inhibitory concentration (MIC) of CAms were identified using a broth microdilution assay modified from previous studies. Briefly, the stock solutions of CAMs were first prepared by dissolving in double-distilled water (ddH2O) and then diluted in BHI broth at pre-determined concentrations. Further serial 2-fold dilutions were performed in a 96-well microplate (Becton Dickinson, Franklin Lakes, N.J.) with BHI broth. The inoculum concentration was adjusted to 5×10^6 CFU/mL with ultraviolet-visible (UV-vis) spectroscopy at 600 nm. An equal volume (100 μL) of bacterial suspension was added to each microplate well with a final volume of 200 μL. Plates were incubated at 37° C. for 24 h under aerobic conditions. The lowest CAm concentration that yielded no visible growth was recorded as the MIC. Cetyltrimethylammonium bromide (CTAB), a cationic amphiphile, served as a positive control that could mimic the proposed bactericidal mechanism of the newly synthesized tartaric acid-based compounds.
(§3) CAms were evaluated against five selected pathogenic microorganisms, including Gram-positive bacteria (i.e., S. aureus and L. monocytogenes) and Gram-negative bacteria (i.e., E. coli, S. typhimurium, and P. aeruginosa), using a turbidity-based microdilution method. MICs were taken as the lowest concentrations that inhibited the visible bacterial growth. […] The higher MIC values for the Gram-negative bacteria could be attributed to the presence of an additional lipopolysaccharide layer, which forms a hydrophilic barrier that could prevent penetration of the highly hydrophobic CAms.

[2] = system: Pseudomonas aeruginosa ATCC 15442; test: Broth microdilution assay (MIC); assay type: cell-based; settings: BHI broth, 37° C., 24 h, no visible growth
Protocol: as §1, §2, §3

[3] = system: Staphylococcus aureus ATCC 13565; test: Broth microdilution assay (MIC); assay type: cell-based; settings: BHI broth, 37° C., 24 h, no visible growth
Protocol: as §1, §2, §3

[4] = system: Listeria monocytogenes Scott A; test: Broth microdilution assay (MIC); assay type: cell-based; settings: BHI broth, 37° C., 24 h, no visible growth
Protocol: as §1, §2, §3

[5] = system: Salmonella enterica serovar typhimurium; test: Broth microdilution assay (MIC); assay type: cell-based; settings: BHI broth, 37° C., 24 h, no visible growth
Protocol: as §1, §2
CAms were evaluated against five selected pathogenic microorganisms, including Gram-positive bacteria (i.e., S. aureus and L. monocytogenes) and Gram-negative bacteria (i.e., E. coli, S. typhimurium, and P. aeruginosa), using a turbidity-based microdilution method. MICs were taken as the lowest concentrations that inhibited the visible bacterial growth.

[6] = system: G. vaginalis pre-formed biofilms; test: MBC-B against pre-formed biofilms (Example 2); assay type: cell-based; settings: ≥3 log reduction in viable cells
Protocol: The minimum biofilm bactericidal concentrations (MBC-Bs) of the cationic amphiphiles against pre-formed biofilms of L. monocytogenes and G. vaginalis were identified. The biofilms of the two targeted microorganisms were grown in 96-well plates according to established methodology for Gram-positive and Gram-variable bacteria (Tabak et al., FEMS microbiology letters. 2009; 301(1):69-76). To identify the reduction in the number of biofilm-associated viable cells treated with different concentrations of cationic amphiphiles, the spot plate method was used (Turovskiy et al., Infectious diseases in obstetrics and gynecology. 2012; 2012:284762, 9 pages). In brief, biofilms were washed, disrupted, diluted 10^1-10^8 times with fresh medium and the samples plated on suitable solid medium.

biofilms of G. vaginalis = test: Checkerboard assay, biofilm cells; assay type: cell-based, Gardnerella vaginalis
Protocol: For biofilm formation, the overnight culture of G. vaginalis was diluted to approximately 10^7 CFU/ml and 200 μl was transferred into a 96-well tissue culture microplate and incubated anaerobically at 37° C. for 24-36 h. Following biofilm formation and removal of non-adherent cells by washing the biofilm twice with BHIG, each antimicrobial was diluted twofold separately with BHIG broth into two 96-white deep-well microplates. From each dilution of antimicrobial B, 125 μL was added horizontally over 125 μL of antimicrobial A (see FIG. 1 of Algburi et al., 2015. Path Dis 73(5)). From each combination, 200 μL samples were added to the biofilm in sequence, and the microplate was incubated for 24 h at 37° C. under anaerobic conditions. The spot plate method was utilized for counting the number of CFU/ml and evaluating the bactericidal activity (MBC-B) of each antimicrobial combination against biofilm-associated G. vaginalis. Isobolograms were used to analyze the nature of antimicrobial interaction, which is classified as synergistic, antagonistic or additive activity against the planktonic and biofilm cells.
(§4) Isobolograms were used to compare the MIC and MBC-B values of each antimicrobial alone with its MIC and MBC-B values in combination with other antimicrobials. The point on the axis (X) refers to MIC or MBC-B values of the first antimicrobial with the coordinates (0, x), and the point on the axis (Y) represents the MIC or MBC-B values of the second antimicrobial with the coordinates (y, 0) when they used alone. The two MIC or MBCs-B values are connected by a dashed line (Turovskiy Y, Chikindas M L. 2011 Probiotics Antimicrob Proteins 3:144-149). The MICs or MBCs-B of each antimicrobial combination are plotted as dots on the graph. Results are expressed according to the locations of these dots from the line that connects MICs or MBCs-B of the first and second antimicrobials. When MICs or MBCs-B values are located under the line, the two combining antimicrobials are synergized, but antagonized against the tested microorganism when these dots of interaction are above. An additive effect is observed when these dots are located on the line.

vaginal lactobacilli = test: MIC against vaginal lactobacilli; assay type: cell-based, Lactobacillus species
Protocol: According to Clinical and Laboratory Standards Institute (CLSI 2010), the MIC is defined as the lowest concentration of antimicrobial compound producing no visible growth or complete inhibition of bacterial growth during 24 h. To determine MIC values, the broth microdilution assay was performed according to Algburi et al. (Algburi et al., 2015. Path Dis 73(5)) with minor modifications. Briefly, the overnight-grown cells were diluted with their suitable culture medium to approach ˜10^6 CFU/ml. The number of bacterial cells was identified using spot plate method (Turovskiy et al., 2012. Infect Dis Obstet Gynecol 2012:284762). The CAms were serially diluted twofold with sBHI into a non-tissue culture 96-well microplate plate (Falcon, Corning Incorporated, Corning, N.Y., USA) resulting in a final volume of 100 μl for each well. Aliquots of 100 μl of the diluted cell suspension (˜10^6 CFU/ml) were added to each well of a microplate that was treated with different concentrations of CAms. To avoid culture medium evaporation, 75 μl of mineral oil (Sigma-Aldrich, St. Louis, Mo.) was added to each treated well. The microplate was then transferred to the plate reader (Model 550, Bio-Rad Laboratories, Hercules, Calif., USA) and incubated at 37° C. for 24-36 h. The kinetic reading was statistically analyzed, and the MIC and sub-MIC of each CAm compound were determined.

[7] = system: planktonic cells of G. vaginalis; test: Checkerboard assay, planktonic cells; assay type: cell-based, Gardnerella vaginalis
Protocol: To evaluate the potential effectiveness of the antimicrobial combinations on planktonic and biofilm cells, a checkerboard assay was performed following Algburi et al. (Algburi et al., 2015. Path Dis 73(5)) with minor modifications. For planktonic cells, the overnight grown G. vaginalis was diluted to approximately 10^6 CFU/ml. Each antimicrobial agent was diluted twofold with sBHI broth into two separate 96-well non-tissue culture microplates. From each dilution of antimicrobial B, 50 μl was added horizontally over 50 μl of antimicrobial A. Then, 100 μl of bacterial suspension (10^6 CFU/ml) was separately added to the predetermined concentration of antimicrobial combinations. The MIC of each combination was determined after 24 h of incubation.
as §4

Row | Structure (SMILES) | antimicrobial activity at the highest concentration tested [1] | MIC E. coli (G−) (Escherichia coli O157:H7) | MIC P. aeruginosa (G−) [2] | MIC S. aureus (G+) [3] | MIC L. monocytogenes (G+) [4] | MIC S. typhimurium (G−) [5] | MBC ([6]; Gardnerella vaginalis, pre-formed biofilm) | metronidazole's MIC against biofilms in combination with the tested CAms (biofilms of G. vaginalis) | metronidazole's MIC against biofilms, metronidazole alone (biofilms of G. vaginalis) | concentration that inhibited the growth of vaginal lactobacilli (vaginal lactobacilli) | metronidazole's MIC in combination with the tested CAms [7] | MIC ([7]; Gardnerella vaginalis, read-out: MIC when used alone) | MBC-B, biofilm-associated G. vaginalis [6]
1 | CCCCCCCCCCCCOC(C(=O)NCCN)C(OCCCCCCCCCCCC)C(=O)NCCN.Cl.Cl (stereo not shown) [5c] | didn't show appreciable antimicrobial activity | >250 µg/mL | >250 µg/mL | 3.9 µg/mL | 125 µg/mL | >250 µg/mL |  |  |  |  |  |  | 
2 | CCCCCCCCCCCC(=O)OC(C(=O)NCCN)C(OC(=O)CCCCCCCCCCC)C(=O)NCCN.Cl.Cl (stereo not shown) [8c] | didn't show appreciable antimicrobial activity | >250 µg/mL | >250 µg/mL | 15.6 µg/mL | >250 µg/mL | >250 µg/mL |  |  |  |  |  |  | 
3 | CCC[C@@H]1C[C@@H](C(=O)N[C@@H]([C@H]2O[C@H](SC)[C@H](O)[C@@H](O)[C@H]2O)[C@H](C)Cl)N(C)C1 [clindamycin, reference compound] |  |  |  |  |  |  | 20000 µg/mL (≈ 47.1 mM) |  |  |  |  |  | 
4 | Cc1ncc([N+](=O)[O-])n1CCO [metronidazole, reference compound] |  |  |  |  |  |  |  | 11.1 µM | 40.4 µM | > 1168.5 µM | 4.7 µM | 37.4 µM | 500 µg/mL (≈ 2.92 mM)
